In BindingDB's records for doi:10.1016/j.bmcl.2010.10.034 (Bristol-Myers Squibb Research and Development, 2010):

Molecular target: cAMP-dependent protein kinase catalytic subunit beta (Homo sapiens) (UniProt P22694)
Assay: Inhibition of PKAbeta

Q: With `Cc1ccc(C(=O)Nc2ccon2)cc1NC(=O)c1cnn(-c2ccccc2F)c1N` [5-amino-1-(2-fluorophenyl)-N-(5-(isoxazol-3-ylcarbamoyl)-2-methylphenyl)-1H-pyrazole-4-carboxamide] as the compound, how does the IC50 read?
A: > 40 µM
